In ChEMBL document CHEMBL1142134, “Characterization of squalene epoxidase of Saccharomyces cerevisiae by applying terbinafine-sensitive variants” (2007) one finds Fold change and Activity data, which are given here for three molecules.

The test system of test [1] is Saccharomyces cerevisiae. As to the kind of experiment: Increased sensitivity to growth inhibition in Saccharomyces cerevisiae KLN1 carrying erg1 pL37P allele after 24 hrs relative to wild type at 30 degC. The test is classed as functional.
The subject of test [2] is Saccharomyces cerevisiae. The test is described as follows: Increased sensitivity to growth inhibition in Saccharomyces cerevisiae KLN1 carrying erg1 pR269G allele after 24 hrs relative to wild type at 30 degC. Format: functional.
Test [3] relates to Saccharomyces cerevisiae. As to the kind of experiment: Growth inhibition in Saccharomyces cerevisiae KLN1 carrying erg1 pL37P allele at 0.2 ug/ml after 24 hrs at 30 degC. Format: functional, organism-based.
The test system of test [4] is Saccharomyces cerevisiae. The test is described as follows: Growth inhibition in Saccharomyces cerevisiae KLN1 carrying erg1 pG30S allele at 0.5 ug/ml after 24 hrs at 30 degC. Format: functional, organism-based.
Test [5] concerns Saccharomyces cerevisiae. The test is described as follows: Growth inhibition in Saccharomyces cerevisiae KLN1 carrying erg1 pR269G allele at 1 ug/ml after 24 hrs st 30 degC. Format: functional, organism-based.

The structures appear in SMILES notation. Activity calls are given as the source filed them. The rule behind the calls is not given here.

For the molecule `CC(=O)N1CCN(c2ccc(OCC3COC(Cn4ccnc4)(c4ccc(Cl)cc4Cl)O3)cc2)CC1` (centres undefined) [KETOCONAZOLE], the Fold change in test [1] is recorded as 5; in test [2] it was 2.

For the molecule `CN(C/C=C/c1ccccc1)Cc1cccc2ccccc12` [NAFTIFINE], the figures for the Fold change in test [1] and in test [2] were over 25 and over 10, respectively.

For `CN(C/C=C/C#CC(C)(C)C)Cc1cccc2ccccc12` [TERBINAFINE], the Fold change in test [1] is on record as over 10; in test [2], over 5. The result in test [3], in test [4] and in test [5] was Active.
